The results in this text go back to patent US6582351B1, “Imidazopyridinone derivatives and their use as phosphodiesterase inhibitors” (Fujisawa Pharmaceutical Co., Ltd., priority 1999, dated 2003).

The melting point is the temperature of the solid-liquid transition.

As to `COc1ccc(Cn2c(=O)n([C@H]3CC[C@H](NC(=O)OC(C)(C)C)CC3)c3ccc(C(F)(F)F)cc32)cc1Cl` [Example 2(99), 1-[trans-4-(N-tert-Butoxycarbonylamino)cyclohexyl]-3-(3-chloro-4-methoxybenzyl)-5-trifluoromethyl-2,3-dihydro-1H-benzimidazol-2-one], the melting point lay within 185.5 to 187 °C.
With `COc1ccc(Cn2c(=O)n([C@H]3CC[C@H](O)CC3)c3ncc(C#N)cc32)cc1Br` [Example 2(100), 1-(3-Bromo-4-methoxybenzyl)-6-cyano-3-(trans-4-hydroxycyclohexyl)-2,3-dihydro-1H-imidazo[4,5-b]pyridin-2-one], the melting point is 114 to 116 °C.
For `COc1ccc(Cn2c(=O)n([C@H]3CC[C@H](O)CC3)c3ncc(C#N)cc32)cc1C` [Example 2(101), 6-Cyano-3-(trans-4-hydroxycyclohexyl)-1-(4-methoxy-3-methylbenzyl)-2,3-dihydro-1H-imidazo[4,5-b]pyridin-2-one] the value was 168 to 169 °C; for `COc1ccc(Cn2c(=O)n([C@H]3CC[C@H](O)CC3)c3ncc(C#N)cc32)cc1C#N` [Example 2(102), 6-Cyano-1-(3-cyano-4-methoxybenzyl)-3-(trans-4-hydroxycyclohexyl)-2,3-dihydro-1H-imidazo[4,5-b]pyridin-2-one], 133 to 134 °C.
The compound `COc1ccc(Cn2c(=O)n([C@H]3CCN(C(=O)OC(C)(C)C)C3)c3ncc(C(F)(F)F)cc32)cc1Cl` [Example 2(103), 3-((S)-1-tert-Butoxycarbonylpyrrolidin-3-yl)-1-(3-chloro-4-methoxybenzyl)-6-trifluoromethyl-2,3-dihydro-1H-imidazo[4,5-b]pyridin-2-one] displayed a melting point of 87 to 89 °C.
In the case of `COc1ccc(Cn2c(=O)n(-c3ccc4nc[nH]c4c3)c3ncc(C#N)cc32)cc1Cl` [Example 2(104), 3-(Benzimidazol-5-yl)-1-(3-chloro-4-methoxybenzyl)-6-cyano-2,3-dihydro-1H-imidazo[4,5-b]pyridin-2-one], the melting point was in the range of 163 to 166 °C.
`COc1ccc(Cn2c(=O)n(-c3ccc4[nH]ccc4c3)c3ncc(C#N)cc32)cc1Cl` [Example 2(105), 1-(3-Chloro-4-methoxybenzyl)-3-(1H-indol-5-yl)-6-cyano-2,3-dihydro-1H-imidazo[4,5-b]pyridin-2-one] displayed a melting point of 281 to 282 °C.
For `COc1ccc(Cn2c(=O)n(C(C)(C)CO)c3ncc(C(F)(F)F)cc32)cc1Cl` [Example 3, 1-(3-chloro-4-methoxybenzyl)-3-(1,1-dimethyl-2-hydroxyethyl)-6-trifluoromethyl-2,3-dihydro-1H-imidazo[4,5-b]pyridin-2-one], the melting point is 195 to 197 °C.
`COc1ccc(Cn2c(=O)n([C@H]3CC[C@H](O)CC3)c3ccc(S(C)(=O)=O)cc32)cc1Cl` [Example 4(3), 3-(3-Chloro-4-methoxybenzyl)-1-(trans-4-hydroxycyclohexyl)-5-methylsulfonyl-2,3-dihydro-1H-benzimidazol-2-one] had a melting point of 265 to 265.5 °C.
For `COc1ccc(Cn2c(=O)n([C@H](C)CO)c3ccc(C(F)(F)F)cc32)cc1Cl` [Example 4(4), 3-(3-Chloro-4-methoxybenzyl)-1-((R)-2-hydroxy-1-methylethyl)-5-trifluoromethyl-2,3-dihydro-1H-benzimidazol-2-one], the melting point is 108 to 109 °C.
Take `COc1ccc(Cn2c(=O)n([C@H]3CC[C@H](O)CC3)c3ccc(C(=O)c4ccccc4)cc32)cc1Cl` [Example 4(6), 5-Benzoyl-3-(3-chloro-4-methoxybenzyl)-1-(trans-4-hydroxycyclohexyl)-2,3-dihydro-1H-benzimidazol-2-one]: the melting point fell in the range of 160.5 to 162 °C.
For `COc1ccc(Cn2c(=O)n(CCO)c3ccc(C(F)(F)F)cc32)cc1Cl` [Example 4(7), 3-(3-Chloro-4-methoxybenzyl)-1-(2-hydroxyethyl)-5-trifluoromethyl-2,3-dihydro-1H-benzimidazol-2-one] the value was 106 to 107 °C.
Turning to `COc1ccc(Cn2c(=O)n([C@H](C)CO)c3ncc(C#N)cc32)cc1Cl` [Example 4(8), 1-(3-Chloro-4-methoxybenzyl)-6-cyano-3-((R)-2-hydroxy-1-methylethyl)-2,3-dihydro-1H-imidazo[4,5-b]pyridin-2-one], the melting point fell in the range of 164 to 165 °C.
For `COc1ccc(Cn2c(=O)n([C@H]3CC[C@H](N)CC3)c3ccc(C(F)(F)F)cc32)cc1Cl` [Example 8(4), 1-(trans-4-Aminocyclohexyl)-3-(3-chloro-4-methoxybenzyl)-5-trifluoromethyl-2,3-dihydro-1H-benzimidazol-2-one] the value was 167 to 168.5 °C.
For `COc1ccc(Cn2c(=O)n([C@H]3CC[C@H](NC(N)=O)CC3)c3ccc(C(F)(F)F)cc32)cc1Cl` [Example 14(2), 1-(trans-4-Ureidocyclohexyl)-3-(3-chloro-4-methoxybenzyl)-5-trifluoromethyl-2,3-dihydro-1H-benzimidazol-2-one] the value was 164 to 165.5 °C; for `COc1ccc(Cn2c(=O)n([C@H]3CC[C@H](O)CC3)c3ncc(C(F)(F)F)cc32)cc1OC` [Example 18, 1-(3,4-dimethoxybenzyl)-3-(trans-4-hydroxycyclohexyl)-6-trifluoromethyl-2,3-dihydro-1H-imidazo[4,5-b]pyridin-2-one], 128 to 130 °C.
Turning to `COc1ccc(Cn2c(=O)n([C@H]3CC[C@H](O)CC3)c3ncc(C(F)(F)F)cc32)cc1Cl` [Example 19(2), 1-(3-Chloro-4-methoxybenzyl)-3-(trans-4-hydroxycyclohexyl)-6-trifluoromethyl-2,3-dihydro-1H-imidazo[4,5-b]pyridin-2-one], the melting point lay within 121 to 123 °C.
With `O=c1n(Cc2ccc(Cl)c(Cl)c2)c2cc(C(F)(F)F)cnc2n1[C@H]1CC[C@H](O)CC1` [Example 19(3), 1-(3,4-Dichlorobenzyl)-3-(trans-4-hydroxycyclohexyl)-6-trifluoromethyl-2,3-dihydro-1H-imidazo[4,5-b]pyridin-2-one], the melting point lay within 170 to 171.5 °C.
As for `COc1ccc(Cn2c(=O)n([C@H]3CC[C@H](O)CC3)c3ccc(C)cc32)cc1OC` [Example 19(4), 3-(3,4-Dimethoxybenzyl)-1-(trans-4-hydroxycyclohexyl)-5-methyl-2,3-dihydro-1H-benzimidazol-2-one], the melting point was 174 to 175 °C.
Compound `COc1ccc(Cn2c(=O)n([C@H]3CC[C@H](O)CC3)c3ccc(C(=O)O)cc32)cc1Cl` [Example 19(5), 5-Carboxy-3-(3-chloro-4-methoxybenzyl)-1-(trans-4-hydroxycyclohexyl)-2,3-dihydro-1H-benzimidazol-2-one] displayed a melting point of 275 to 276 °C.
Turning to `COc1ccc(Cn2c(=O)n([C@H]3CC[C@H](O)CC3)c3ncc(C(=O)O)cc32)cc1Cl` [Example 19(25), 6-Carboxy-1-(3-chloro-4-methoxybenzyl)-3-(trans-4-hydroxycyclohexyl)-2,3-dihydro-1H-imidazo[4,5-b]pyridin-2-one], the melting point was 262 to 262.5 °C.
The same measure for `COc1ccc(Cn2c(=O)n([C@H]3CC[C@H](O)CC3)c3ccc(C(N)=O)cc32)cc1Cl` [Example 20, 5-carbamoyl-3-(3-chloro-4-methoxybenzyl)-1-(trans-4-hydroxycyclohexyl)-2,3-dihydro-1H-benzimidazol-2-one]: 291.5 to 292 °C.
